# Measured values as given in US7728169B2, “Pharmaceutical compositions of isolated orthorhombic crystalline 4-[6-acetyl-3-[3-(4-acetyl-3-hydroxy-2-propylphenylthio)propoxy]-2-propylphenoxy]butyric acid and methods of use” (Medicinova, Inc., priority 2003, dated 2010).
# Read-outs that look alike come from different tables or passages of the source.
# How the values were obtained:
# [1] = Solubility compared to other polymorphs (solvent not given); format: physicochemical
# [2] = Solubility of compound (1) in ethanol/water (2:1); format: physicochemical; details: 40° C., stirred one hour, listed as V (form A)
# Protocol: Samples of compound (1) (5 g) were suspended in ethanol/water (2:1, 100 mL) and stirred for one hour at temperatures of 22° C., 30° C., and 40° C., respectively. The suspensions were filtered and the solids dried in a vacuum oven at room temperature overnight to give the insoluble material. The solubilities were calculated by subtractive means based on recovered material.
# [3] = system: asthma and allergic diseases; assay: Oral activity for treatment of asthma and allergic diseases; format: in vivo
solubility compared to other crystalline forms [1],solubility compared to other crystalline forms ([1]; listed as form A),Solubility [2] [mg/mL],SMILES,oral activity for treatment of asthma and allergic diseases [3]
superior,high,46,"CCCc1c(SCCCOc2ccc(C(C)=O)c(OCCCC(=O)O)c2CCC)ccc(C(C)=O)c1O [Form V, 4-[6-acetyl-3-[3-(4-acetyl-3-hydroxy-2-propylphenylthio)propoxy]-2-propylphenoxy]butyric acid]",
,,,"CCCc1c(SCCCOc2ccc(C(C)=O)c(OCCCC(=O)O)c2CCC)ccc(C(C)=O)c1O [compound (1), 4-[6-acetyl-3-[3-(4-acetyl-3-hydroxy-2-propylphenylthio)propoxy]-2-propylphenoxy]butyric acid]",orally active
